Data as given in patent publication US7709645B2, “Pyrrolo-pyridine kinase modulators” (SGX Pharmaceuticals, Inc., priority 2004, dated 2010).

molecular target: T1, Abl T315I kinase domain (unphosphorylated) (Mus musculus, UniProt P00520, T315I); assay: Abl_T315I Bioassay (c-Abl PK/LDH coupled enzyme assay); format: biochemical; details: 10 μM ATP
T1 construct: purified and unphosphorylated T315I Abl kinase domain; made in house; host or cells: E. coli BL21(DE3) strains
T1 sequence (P00520 242-493 T315I limits assumed): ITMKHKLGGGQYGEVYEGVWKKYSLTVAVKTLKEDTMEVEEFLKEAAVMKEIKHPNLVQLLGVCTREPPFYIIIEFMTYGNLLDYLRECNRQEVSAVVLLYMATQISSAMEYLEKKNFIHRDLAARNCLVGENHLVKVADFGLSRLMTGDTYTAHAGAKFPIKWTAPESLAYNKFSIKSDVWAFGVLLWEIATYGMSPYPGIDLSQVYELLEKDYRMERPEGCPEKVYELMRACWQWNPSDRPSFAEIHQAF
Text: Although the first of these examples uses the kinase domain of a mutant form of Abl T315I (“Abl T315I KD”), the kinase assays may use various forms of mutant and wild type enzymes, including, for example, the entire protein, the kinase domain, or a portion thereof (e.g. Abl Y393F). The kinases used in the assays may also be of varying phosphorylation states. In the c-Abl example, a mutant kinase at a zero phosphorylation state was used.
In the c-Abl Pyruvate Kinase (PK)/Lactate Dehydrogenase (LDH) Coupled Assay the protein kinase dependant phosphorylation of a substrate peptide was coupled to the oxidation of NADH. The oxidation of NADH to NAD+ was detected by monitoring a decrease in absorbance at 340 nm.
Materials: Abl substrate peptide=EAIYAAPFAKKK (SEQ ID NO:1)-OH (Biopeptide, San Diego, Calif.); βNADH (Sigma Cat#N-8129, FW=709.4); 2M MgCl2; 1M HEPES buffer, pH 7.5; Phosphoenolpyruvate (PEP) (Sigma Cat#P-7002, FW=234); Lactate dehydrogenase (LDH) (Worthington Biochemical Cat#2756); Pyruvate Kinase (PK) (Sigma Cat#P-9136); ATP (Sigma Cat#A-3377, FW=551); Greiner 384-well UV star plate; and purified and unphosphorylated T315I Abl kinase domain.
Stock Solutions: 10 mM NADH (7.09 mg/ml in miliQH2O) made fresh daily; 10 mM Abl substrate peptide (13.4 mg/ml in miliQH2O) stored at −20° C.; 100 mM HEPES buffer, pH 7.5 (5 ml 1M stock+45 ml miliQH2O); 100 mM MgCl2 (5 ml 2M MgCl2+95 ml dH2O); 100 mM PEP (23.4 mg/ml in dH2O) stored at −20° C.; 10 mM ATP (5.51 mg/ml in dH2O) stored at −20° C. (diluted 50 μl into total of 10 ml miliQH2O daily=50 μM ATP working stock); 1000 U/ml PK (U/mg varies with lot) flash-frozen under liquid N2 and stored at −80° C.; and 1000 U/ml LDH (U/mg varies with lot) flash-frozen under liquid N2 and stored at −80° C.
Standard Assay Setup for 384-well format (50 μl reaction): 300 μM NADH; 10 mM MgCl2; 2 mM PEP; 45 U/ml PK; 60 U/ml LDH; 200 μM Abl substrate peptide; 2.5 μl test compound (in DMSO); 2 μg/ml Abl kinase domain; 10 μM ATP; 100 mM HEPES buffer. Positive controls contained DMSO with no test compound. Negative controls contained 5 μl of 0.5M EDTA (50 mM in the assay). The dephosphorylated form of the c-Abl T315I mutant was used in the biochemical screening assays. The kinase reaction was initiated at time t=0 by the addition of ATP.
Activity was measured by following the time-dependent loss of NADH by absorbance spectroscopy at 340 nm. The linear portion of the resulting progress curve was then analyzed by linear regression to get the activity in absorbance units/time, reported as the slope of that best fit line (moles/unit time can be calculated from using molar extinction coefficient for NADH at 340 nm, 6250M^−1 cm^−1).
Data was evaluated using the equation: Z′=1−[3*(σ++σ−)/|μ+−μ−|](Zhang, et al., 1999 J Biomol Screening 4(2) 67-73), where μ denotes the mean and σ the standard deviation. The subscript designates positive or negative controls. The Z′ score for a robust screening assay should be ≧0.50. The typical threshold=μ+−3*σ+. Any value that falls below the threshold was designated a “hit”.
Dose response was analyzed using the equation: y=min+{(max−min)/(1+10^[compound]−logIC50)}, where y is the observed initial slope, max=the slope in the absence of inhibitor, min=the slope at infinite inhibitor, and the IC50 is the [compound] that corresponds to ½ the total observed amplitude (Amplitude=max−min).
To measure modulation, activation, or inhibition of Abl KD, a test compound was added to the assay at a range of concentrations. Inhibitors may inhibit Abl KD activity at an IC50 in the micromolar range, the nanomolar range, or, for example, in the subnanomolar range.
An open-reading frame for c-Abl was amplified from a Mus musculus (mouse) cDNA library prepared from freshly harvested mouse liver using a commercially available kit (Invitrogen) by PCR using the following primers: […]
The c-Abl T315I KD (kinase domain) was purified as follows. […]

IC50, < 50 nM:
COc1ccccc1-c1c[nH]c2ncc(-c3cc[nH]c(=O)c3)cc12 [AE9]
N#Cc1cc(-c2cnc3[nH]cc(-c4ccc5[nH]ccc5c4)c3c2)ccc1O [AE20]
COCCOc1ccc(-c2cnc3[nH]cc(-c4ccccc4OC)c3c2)cc1OCCOC [AE68]
COc1ccccc1-c1c[nH]c2ncc(-c3ccc(S(N)(=O)=O)cc3)cc12 [AE21]
c1cc2cc(-c3c[nH]c4ncc(-c5ccc6[nH]cnc6c5)cc34)ccc2[nH]1 [AE22]
Nc1nc(-c2c[nH]c3ncc(-c4ccc5[nH]ccc5c4)cc23)cs1 [AE55]
CNC(=O)c1cncc(-c2cnc3[nH]cc(-c4ccccc4OC)c3c2)c1 [AE1]
Oc1cccc(-c2cnc3[nH]cc(-c4ccn[nH]4)c3c2)c1 [AE49]
COc1ccccc1-c1c[nH]c2ncc(-c3cccc(C(=N)N4CCCCC4)c3)cc12 [AE42]
COc1cc(-c2cnc3[nH]cc(-c4ccc(O)cc4)c3c2)ccc1O [AE58]
COc1ccccc1-c1c[nH]c2ncc(-c3ccc4[nH]cc(CC(=O)O)c4c3)cc12 [AE10]
COc1cc(-c2cnc3[nH]cc(-c4ccccc4OC)c3c2)ccc1OCCN1CCCC1 [AE65]
COc1ccccc1-c1c[nH]c2ncc(-c3ccc(CN(C)C)cc3)cc12 [AE8]
COc1cc(-c2cnc3[nH]cc(-c4ccccc4OC)c3c2)ccc1O [AE64]
CNC(=O)c1cc(-c2cnc3[nH]cc(-c4ccccc4OC)c3c2)cs1 [AE2]
COc1ccccc1-c1c[nH]c2ncc(-c3ccc(O)c(CN4CCCN(C)CC4)c3)cc12 [AE41]
COc1ccccc1-c1c[nH]c2ncc(-c3ccc(S(N)(=O)=O)s3)cc12 [AE11]
Oc1cccc(-c2cnc3[nH]cc(-c4ccc(O)c(F)c4)c3c2)c1 [AE48]
O=C(c1cncc(-c2cnc3[nH]cc(-c4ccc5cc[nH]c5c4)c3c2)c1)N1CCOCC1 [AE14]
COc1ccccc1-c1c[nH]c2ncc(-c3cccc(S(C)(=O)=O)c3)cc12 [AE13]
COc1ccccc1-c1c[nH]c2ncc(-c3csc(C(=O)N(C)C)c3)cc12 [AE3]
COc1ccccc1-c1c[nH]c2ncc(-c3ccc[nH]3)cc12 [AE67]
